Experimental data taken from patent publication US20060177553A1, “Method of powdering nonsugar component and powdering base” (priority 2003, published 2006).

Key:
Type in all cases: physicochemical
[1] = Hygroscopicity of the product
[2] = Solubility in water of the product
[3] = Reducing power (DE, Somogyi-Nelson method)
Experimental: A reagent grade maltotetraose (purity 97.0% or higher), commercialized by Hayashibara Biochemical Laboratories Inc., Okayama, Japan, was prepared into 20% solution and admixed with two units/g-saccharide of non-reducing saccharide-forming enzyme, disclosed in Japanese Patent No. 44695/81, and followed enzymatic reaction at 46° C. for 48 hours, and the saccharide solution containing 79.8% of α-maltosyl α,α-trehalose, d.s.b., was obtained. After adjusting the pH to 6.0, the saccharide solution was admixed with 10 units/g-saccharide of β-amylase, commercialized by Nagase & Co., Ltd., Osaka, Japan, and followed enzymatic reaction at 50° C. for 48 hours to hydrolyze maltotetraose. After autoclaving at 120° C. for 10 minutes, the reaction mixture was cooled and filtrated. The resulting filtrate was subjected to a column chromatography using “XT-1016 (Na^+-form, degree of crosslinking 4%)”, a strong acid cation-exchanger resin commercialized by Rohm and Hass Japan K.K., Fukushima, Japan, and collected α-maltosyl α,α-trehalose high content fractions. The saccharide solution was purified, concentrated, and spray-dried to prepare an amorphous powdery α-maltosyl α,α-trehalose high content base for the powderization.

- hygroscopicity [1]: low
- solubility in water [2]: satisfactory
- reducibility [3]: no reducibility
- reducing power ([3]; Somogyi-Nelson method): less than the detection limit
Structure (SMILES): OC[C@H]1O[C@H](O[C@H]2O[C@H](CO)[C@@H](O[C@H]3O[C@H](CO)[C@@H](O[C@H]4O[C@H](CO)[C@@H](O)[C@H](O)[C@H]4O)[C@H](O)[C@H]3O)[C@H](O)[C@H]2O)[C@H](O)[C@@H](O)[C@@H]1O [Example A-5, α-maltosyl α,α-trehalose]
